Measured values as given in patent US20080051387A1, “TETRAHYDROPYRIDO[3,4-D]PYRIMIDINES AND RELATED ANALOGUES” (priority 2006, published 2008).

target: T1, chimeric human H3 receptor (Homo sapiens, UniProt Q9Y5N1); assay: Chimeric human H3 receptor screening GTP binding assay (inhibition of histamine-stimulated GTP-gamma35S binding, Example 8); type: biochemical; conditions: 1 h; assay described in Example 8; symbol "!" in column headed Ki; read-out: Ki ("!": percent inhibition of agonist-induced GTP-gammaS binding to H3)
T1 construct: rat Galpha-i2 (Gnai2, rat); made in house; host or cells: Sf9 insect cells (baculovirus); P2 membranes
Summary of the method: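 Compound tested at 4 μM against 1 μM histamine stimulation; 125 pM GTP-gamma35S binding measured by filtration and scintillation after 60 min at room temperature. Membranes from Sf9 cells expressing chimeric human H3 plus G-protein subunits, in Tris pH 7.4/NaCl/MgCl2/GDP buffer; values are % inhibition after nonspecific subtraction.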

T1 sequence (Q9Y5N1 with tags, fused parts or gaps): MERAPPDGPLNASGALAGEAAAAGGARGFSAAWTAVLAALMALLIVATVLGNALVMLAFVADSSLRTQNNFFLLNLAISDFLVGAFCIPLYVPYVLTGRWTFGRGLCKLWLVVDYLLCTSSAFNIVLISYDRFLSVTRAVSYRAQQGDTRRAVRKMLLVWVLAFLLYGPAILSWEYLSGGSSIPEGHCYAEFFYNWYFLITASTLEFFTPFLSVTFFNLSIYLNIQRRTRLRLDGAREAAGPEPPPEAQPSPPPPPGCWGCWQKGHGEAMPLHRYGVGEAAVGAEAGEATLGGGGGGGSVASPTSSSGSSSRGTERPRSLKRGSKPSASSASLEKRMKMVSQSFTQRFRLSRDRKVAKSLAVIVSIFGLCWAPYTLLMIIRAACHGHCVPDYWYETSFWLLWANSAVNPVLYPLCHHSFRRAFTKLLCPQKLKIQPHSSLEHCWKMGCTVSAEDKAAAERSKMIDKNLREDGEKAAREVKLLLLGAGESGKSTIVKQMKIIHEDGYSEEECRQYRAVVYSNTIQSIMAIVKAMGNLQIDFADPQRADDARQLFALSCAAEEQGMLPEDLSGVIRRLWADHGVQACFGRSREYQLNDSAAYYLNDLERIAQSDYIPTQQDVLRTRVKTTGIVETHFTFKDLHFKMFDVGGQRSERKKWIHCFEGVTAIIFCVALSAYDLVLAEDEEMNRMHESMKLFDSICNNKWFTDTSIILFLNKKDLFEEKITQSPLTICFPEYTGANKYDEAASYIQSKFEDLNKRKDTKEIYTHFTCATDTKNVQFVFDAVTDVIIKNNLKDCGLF

Structure (SMILES)	inhibition at 4 µM
Nc1ccccc1C(=O)N1CCc2cnc(N3CCN(C4CCC4)CC3)nc2CC1 [Compound 531, 2-{[2-(4-cyclobutylpiperazin-1-yl)-5,6,8,9-tetrahydro-7H-pyrimido[4,5-d]azepin-7-yl]carbonyl}aniline]	≥ 90%
Cc1ccc(C(=O)N2CCc3cnc(N4CCN(C5CCC5)CC4)nc3CC2)cc1N [Compound 532, 5-{[2-(4-cyclobutylpiperazin-1-yl)-5,6,8,9-tetrahydro-7H-pyrimido[4,5-d]azepin-7-yl]carbonyl}-2-methylaniline]	≥ 90%
Nc1ccc(C(=O)N2CCc3cnc(N4CCN(C5CCC5)CC4)nc3CC2)cc1 [Compound 533, 4-{[2-(4-cyclobutylpiperazin-1-yl)-5,6,8,9-tetrahydro-7H-pyrimido[4,5-d]azepin-7-yl]carbonyl}aniline]	≥ 90%
CNc1ccccc1C(=O)N1CCc2cnc(N3CCN(C4CCC4)CC3)nc2CC1 [Compound 534, 2-{[2-(4-cyclobutylpiperazin-1-yl)-5,6,8,9-tetrahydro-7H-pyrimido[4,5-d]azepin-7-yl]carbonyl}-N-methylaniline]	≥ 90%
CNc1ccc(C(=O)N2CCc3cnc(N4CCN(C5CCC5)CC4)nc3CC2)cc1 [Compound 535, 4-{[2-(4-cyclobutylpiperazin-1-yl)-5,6,8,9-tetrahydro-7H-pyrimido[4,5-d]azepin-7-yl]carbonyl}-N-methylaniline]	≥ 90%
Nc1ccc(Cl)cc1C(=O)N1CCc2cnc(N3CCN(C4CCC4)CC3)nc2CC1 [Compound 536, 4-chloro-2-{[2-(4-cyclobutylpiperazin-1-yl)-5,6,8,9-tetrahydro-7H-pyrimido[4,5-d]azepin-7-yl]carbonyl}aniline]	≥ 90%
Cc1cccc(C(=O)N2CCc3cnc(N4CCN(C5CCC5)CC4)nc3CC2)c1N [Compound 537, 2-{[2-(4-cyclobutylpiperazin-1-yl)-5,6,8,9-tetrahydro-7H-pyrimido[4,5-d]azepin-7-yl]carbonyl}-6-methylaniline]	≥ 90%
Cc1c(N)cccc1C(=O)N1CCc2cnc(N3CCN(C4CCC4)CC3)nc2CC1 [Compound 538, 3-{[2-(4-cyclobutylpiperazin-1-yl)-5,6,8,9-tetrahydro-7H-pyrimido[4,5-d]azepin-7-yl]carbonyl}-2-methylaniline]	≥ 90%
Cc1ccc(N)c(C(=O)N2CCc3cnc(N4CCN(C5CCC5)CC4)nc3CC2)c1 [Compound 539, 2-{[2-(4-cyclobutylpiperazin-1-yl)-5,6,8,9-tetrahydro-7H-pyrimido[4,5-d]azepin-7-yl]carbonyl}-4-methylaniline]	≥ 90%
Nc1cc(Cl)ccc1C(=O)N1CCc2cnc(N3CCN(C4CCC4)CC3)nc2CC1 [Compound 540, 5-chloro-2-{[2-(4-cyclobutylpiperazin-1-yl)-5,6,8,9-tetrahydro-7H-pyrimido[4,5-d]azepin-7-yl]carbonyl}aniline]	≥ 90%
CCCSc1ncccc1C(=O)N1CCc2cnc(N3CCN(C4CCC4)CC3)nc2CC1 [Compound 541, 2-(4-cyclobutylpiperazin-1-yl)-7-{[2-(propylthio)pyridin-3-yl]carbonyl}-6,7,8,9-tetrahydro-5H-pyrimido[4,5-d]azepine]	≥ 90%
COc1ccc(C(=O)N2CCc3cnc(N4CCN(C5CCC5)CC4)nc3CC2)c(OC)n1 [Compound 542, 2-(4-cyclobutylpiperazin-1-yl)-7-[(2,6-dimethoxypyridin-3-yl)carbonyl]-6,7,8,9-tetrahydro-5H-pyrimido[4,5-d]azepine]	≥ 90%
CCOc1ncccc1C(=O)N1CCc2cnc(N3CCN(C4CCC4)CC3)nc2CC1 [Compound 543, 2-(4-cyclobutylpiperazin-1-yl)-7-[(2-ethoxypyridin-3-yl)carbonyl]-6,7,8,9-tetrahydro-5H-pyrimido[4,5-d]azepine]	≥ 90%
COc1ncc(Cl)cc1C(=O)N1CCc2cnc(N3CCN(C4CCC4)CC3)nc2CC1 [Compound 544, 7-[(5-chloro-2-methoxypyridin-3-yl)carbonyl]-2-(4-cyclobutylpiperazin-1-yl)-6,7,8,9-tetrahydro-5H-pyrimido[4,5-d]azepine]	≥ 90%
CCCOc1ncccc1C(=O)N1CCc2cnc(N3CCN(C4CCC4)CC3)nc2CC1 [Compound 545, 2-(4-cyclobutylpiperazin-1-yl)-7-[(2-propoxypyridin-3-yl)carbonyl]-6,7,8,9-tetrahydro-5H-pyrimido[4,5-d]azepine]	≥ 90%

Next, values leading:

inhibition at 4 µM	Structure (SMILES)
≥ 90%	CC(C)Oc1ncccc1C(=O)N1CCc2cnc(N3CCN(C4CCC4)CC3)nc2CC1 [Compound 546, 2-(4-cyclobutylpiperazin-1-yl)-7-[(2-isopropoxypyridin-3-yl)carbonyl]-6,7,8,9-tetrahydro-5H-pyrimido[4,5-d]azepine]
≥ 90%	O=C(/C=C/c1ccccc1F)N1CCc2cnc(N3CCN(C4CCC4)CC3)nc2CC1 [Compound 547, 2-(4-cyclobutylpiperazin-1-yl)-7-[(2E)-3-(2-fluorophenyl)prop-2-enoyl]-6,7,8,9-tetrahydro-5H-pyrimido[4,5-d]azepine]
≥ 90%	O=C(/C=C/c1ccc(F)cc1)N1CCc2cnc(N3CCN(C4CCC4)CC3)nc2CC1 [Compound 548, 2-(4-cyclobutylpiperazin-1-yl)-7-[(2E)-3-(4-fluorophenyl)prop-2-enoyl]-6,7,8,9-tetrahydro-5H-pyrimido[4,5-d]azepine]
≥ 90%	O=C(/C=C/c1ccc(Cl)cc1)N1CCc2cnc(N3CCN(C4CCC4)CC3)nc2CC1 [Compound 549, 7-[(2E)-3-(4-chlorophenyl)prop-2-enoyl]-2-(4-cyclobutylpiperazin-1-yl)-6,7,8,9-tetrahydro-5H-pyrimido[4,5-d]azepine]
≥ 90%	O=C(/C=C/c1ccc(C(F)(F)F)cc1)N1CCc2cnc(N3CCN(C4CCC4)CC3)nc2CC1 [Compound 550, 2-(4-cyclobutylpiperazin-1-yl)-7-{(2E)-3-[4-(trifluoromethyl)phenyl]prop-2-enoyl}-6,7,8,9-tetrahydro-5H-pyrimido[4,5-d]azepine]
≥ 90%	O=C(/C=C/c1ccc(Cl)c(Cl)c1)N1CCc2cnc(N3CCN(C4CCC4)CC3)nc2CC1 [Compound 551, 2-(4-cyclobutylpiperazin-1-yl)-7-[(2E)-3-(3,4-dichlorophenyl)prop-2-enoyl]-6,7,8,9-tetrahydro-5H-pyrimido[4,5-d]azepine]
≥ 90%	O=C(/C=C/c1cccc(Cl)c1)N1CCc2cnc(N3CCN(C4CCC4)CC3)nc2CC1 [Compound 552, 7-[(2E)-3-(3-chlorophenyl)prop-2-enoyl]-2-(4-cyclobutylpiperazin-1-yl)-6,7,8,9-tetrahydro-5H-pyrimido[4,5-d]azepine]
≥ 90%	O=C(/C=C/c1cccc(F)c1)N1CCc2cnc(N3CCN(C4CCC4)CC3)nc2CC1 [Compound 553, 2-(4-cyclobutylpiperazin-1-yl)-7-[(2E)-3-(3-fluorophenyl)prop-2-enoyl]-6,7,8,9-tetrahydro-5H-pyrimido[4,5-d]azepine]
≥ 90%	O=C(/C=C/c1cccc(F)c1F)N1CCc2cnc(N3CCN(C4CCC4)CC3)nc2CC1 [Compound 554, 2-(4-cyclobutylpiperazin-1-yl)-7-[(2E)-3-(2,3-difluorophenyl)prop-2-enoyl]-6,7,8,9-tetrahydro-5H-pyrimido[4,5-d]azepine]
≥ 90%	O=C(/C=C/c1cccc(C(F)(F)F)c1)N1CCc2cnc(N3CCN(C4CCC4)CC3)nc2CC1 [Compound 555, 2-(4-cyclobutylpiperazin-1-yl)-7-{(2E)-3-[3-(trifluoromethyl)phenyl]prop-2-enoyl}-6,7,8,9-tetrahydro-5H-pyrimido[4,5-d]azepine]
≥ 90%	O=C(/C=C/c1ccc(-c2ccccc2)cc1)N1CCc2cnc(N3CCN(C4CCC4)CC3)nc2CC1 [Compound 556, 7-[(2E)-3-biphenyl-4-ylprop-2-enoyl]-2-(4-cyclobutylpiperazin-1-yl)-6,7,8,9-tetrahydro-5H-pyrimido[4,5-d]azepine]
≥ 90%	Cc1ccc(/C=C/C(=O)N2CCc3cnc(N4CCN(C5CCC5)CC4)nc3CC2)cc1 [Compound 557, 2-(4-cyclobutylpiperazin-1-yl)-7-[(2E)-3-(4-methylphenyl)prop-2-enoyl]-6,7,8,9-tetrahydro-5H-pyrimido[4,5-d]azepine]
≥ 90%	COc1ccc(/C=C/C(=O)N2CCc3cnc(N4CCN(C5CCC5)CC4)nc3CC2)cc1 [Compound 558, 2-(4-cyclobutylpiperazin-1-yl)-7-[(2E)-3-(4-methoxyphenyl)prop-2-enoyl]-6,7,8,9-tetrahydro-5H-pyrimido[4,5-d]azepine]
≥ 90%	CC(C)c1ccc(/C=C/C(=O)N2CCc3cnc(N4CCN(C5CCC5)CC4)nc3CC2)cc1 [Compound 559, 2-(4-cyclobutylpiperazin-1-yl)-7-[(2E)-3-(4-isopropylphenyl)prop-2-enoyl]-6,7,8,9-tetrahydro-5H-pyrimido[4,5-d]azepine]
≥ 90%	COc1ccc(/C=C/C(=O)N2CCc3cnc(N4CCN(C5CCC5)CC4)nc3CC2)cc1OC [Compound 560, 2-(4-cyclobutylpiperazin-1-yl)-7-[(2E)-3-(3,4-dimethoxyphenyl)prop-2-enoyl]-6,7,8,9-tetrahydro-5H-pyrimido[4,5-d]azepine]
≥ 90%	COc1cc(/C=C/C(=O)N2CCc3cnc(N4CCN(C5CCC5)CC4)nc3CC2)ccc1OCc1ccccc1 [Compound 561, 7-{(2E)-3-[4-(benzyloxy)-3-methoxyphenyl]prop-2-enoyl}-2-(4-cyclobutylpiperazin-1-yl)-6,7,8,9-tetrahydro-5H-pyrimido[4,5-d]azepine]
